Data as given in ChEMBL document CHEMBL3392922, “MMV box screening in the Dd2 P. falciparum strain”.

test system: Plasmodium falciparum; test: MMV: IC50 determined against P. falciparum Dd2-luc strain using a Malaria Sybr Green I Fluorescence assay. Starting conditions were 1% trophozoite synchronised parasites at 2% haematocrit. Fluorescence detection completed after 48hr incubation at 37 degrees C under 1% O2, 3% CO2 and balance N2.; format: functional, organism-based; details: Dd2, 48 h

Compound	IC50
CN1CCN(c2ccc(Nc3c4ccccc4nc4ccccc34)cc2)CC1	1600 nM
COc1ccc(Nc2nc(N/N=C/c3ccc(O)cc3)nc(Nc3ccc([N+](=O)[O-])cc3)n2)cc1	1530 nM
CN(C)CCCNc1c2ccccc2nc2ccccc12	237 nM
COc1ccc(C2c3ccc4ccccc4c3Oc3ncn(CCCN(C)C)c(=N)c32)cc1 (stereo not given)	443 nM
c1ccc(/C2=N/c3ccccc3/N=C(/c3ccccc3)c3ccccc32)cc1	638 nM
COc1ccc(C2c3ccc4ccccc4c3Oc3ncn(CCCn4ccnc4)c(=N)c32)cc1OC (stereo not given)	1230 nM
CCOC(=O)c1cnc2ccc(CC)cc2c1O	647 nM
CCN(CC)CCNc1ccnc2cc(Cl)ccc12	44 nM
O=C(Nc1ccc(Br)cc1)Nc1cccc(Cl)c1	3590 nM
Cc1ccc(Nc2nc(-c3ccccn3)cs2)cc1	479 nM
CN(C)CCNc1cc(-c2ccccc2)nc2ccccc12	3650 nM
Cc1cc(NCCN2CCCCC2)c2ccc3ccccc3c2n1	309 nM
O=C(NCc1ccco1)C1CCN(S(=O)(=O)c2ccc(Cl)cc2)CC1	878 nM
CCOc1ccc(N2C(N)=NC(N)=NC2(C)C)cc1	8130 nM
COc1ccc2nc(C)cc(Nc3ccc(Cl)cc3)c2c1	1180 nM
CCc1c(C)c(=N)c2ccccc2n1C	2770 nM
COc1ccc2nc(C)cc(Nc3cccc(O)c3)c2c1	941 nM
COc1cc2cc(C(=O)Nc3ccccc3)c(N)nc2cc1OC	884 nM
Oc1ccc(-c2nc(-c3ccc4oc5ccc(-c6[nH]c(-c7ccc(O)cc7)nc6-c6ccccc6)cc5c4c3)c(-c3ccccc3)[nH]2)cc1	683 nM
CCOc1ccc(CN2CCN(CC(O)COc3ccc(OCC(O)CN4CCN(Cc5ccc(OCC)cc5)CC4)cc3)CC2)cc1 (stereo not given)	948 nM
CCN(CC)CCn1c(=N)n(CC(O)c2ccc(Cl)c(Cl)c2)c2ccccc21 (stereo not given)	404 nM
Brc1ccc(Nc2nc3ccccc3nc2Nc2ccc(Br)cc2)cc1	1510 nM
COc1cccc(C=Cc2nc(=O)c3ccccc3o2)c1OC	426 nM

Compound	IC50
Cc1ccnc(NC(c2cccc(OCc3ccccc3)c2)c2ccc3cccnc3c2O)c1 (stereo not given)	963 nM
COc1ccc(CCn2c(=N)c(C(=O)NCc3cccnc3)cc3c(=O)n4cccc(C)c4nc32)cc1	272 nM
CCCN(CCC)CC(O)COc1ccccc1C(=O)Nc1ccccc1 (stereo not given)	209 nM
Cc1ccc(CSCc2ccc(C(=O)NC3CC3)o2)cc1	550 nM
Cc1cc(Nc2ccc(OCc3ccccc3)cc2)nc2cc(O)ccc12	296 nM
CN1CCN(c2c3c(c(C#N)c4nc5ccccc5n24)CCC3)CC1	1490 nM
CCN(CC)CCNc1ccnc2cc3ccccc3cc12	465 nM
CCOc1ccc2nc(C)cc(Nc3ccc(N(C)C)cc3)c2c1	998 nM
COc1ccc(Nc2cc(C)nc(NCc3ccccc3)n2)cc1	311 nM
COc1cc(-c2nc(-c3ccc(Sc4ccccc4)cc3)c(-c3ccccc3)[nH]2)cc(OC)c1O	734 nM
Cc1cc(Nc2cccc(F)c2)nc(NCc2ccccc2)n1	544 nM
COc1ccc2c(c1)OC(O)(C(F)(F)C(F)(F)F)CC2=O (stereo not given)	370 nM
Cc1ccc(-c2cc3nc4c(c(O)n3n2)CCCC4)cc1	1780 nM
CC(=O)NCCc1nc2ccccc2n1Cc1ccc(C(C)C)cc1	1490 nM
OCCNc1nc(Nc2ccc(Cl)c(Cl)c2)nc2ccccc12	419 nM
COc1nc(Nc2ccc(C(C)C)cc2)nc(OC)n1	365 nM
CCOC(=O)c1cnc2ccc(OC)cc2c1Nc1ccc(N2CCN(C)CC2)cc1	769 nM
COc1ccc(C(=O)C(CCC(CNC(C)(C)C)C(=O)c2ccc(OC)cc2)CNC(C)(C)C)cc1 (stereo not given)	1600 nM
CC(C)CCNCC(O)Cn1c2ccccc2c2ccccc21 (stereo not given)	907 nM
Cc1c(C)n(Cc2ccc(F)cc2)c2ccc(C(=O)NCc3ccco3)cc12	82.7 nM
CCOc1cc2c(cc1OCC)C(c1cc(Cl)ccc1O)NCC2 (stereo not given)	1700 nM
CCOC(=O)c1cnc2ccc(Cl)cc2c1NCCCN(C)C	1180 nM
Cc1cc(C)c2c(c1)OCN(Cc1ccccc1Cl)C2	297 nM

Compound	IC50
COc1cc(OC)c(N(C)C(=O)c2cc3c(s2)-c2ccccc2S(=O)(=O)C3)cc1Cl	298 nM
CCOc1ccccc1NC(=O)CN1CCN(C(=O)c2ccco2)CC1	2900 nM
c1ccc2c(NCCc3c[nH]c4ccccc34)c3ccccc3nc2c1	200 nM
O=C1c2ccccc2C2=Nc3ccccc3SC(c3cccc(F)c3)C12 (stereo not given)	766 nM
Cc1cc(NC(=O)C2c3ccccc3C(=O)N(CC(C)C)C2c2cccs2)no1 (stereo not given)	160 nM
Cc1ccc(Cn2c(N3CCC(C(=O)NCc4cccs4)CC3)nc3ccccc32)cc1	826 nM
CCOc1cc2c(cc1OCC)C(c1cc(C)c(O)c(C)c1)NCC2 (stereo not given)	654 nM
O=C1CC(O)(C(F)(F)C(F)(F)F)Oc2ccccc21 (stereo not given)	1030 nM
Cc1ccc2nc(C)cc(Nc3cccc(C(F)(F)F)c3)c2c1	1390 nM
CCOc1cccc2sc(N(Cc3cccnc3)C(=O)C3CCCCC3)nc12	2700 nM
CC(C)c1ccc(CNCC(O)c2ccccc2)cc1 (stereo not given)	1080 nM
CC1CC(C)CN(C(=O)c2ccc(Cl)cc2Cl)C1 (stereo not given)	1880 nM
COc1ccccc1CNC(=O)C1c2ccccc2C(=O)N(CC(C)C)C1c1cccs1 (stereo not given)	1140 nM
CCOc1cc2c(cc1OCC)C(c1cc(Cl)c(O)c(OCC)c1)NCC2 (stereo not given)	1610 nM
OC(CNC1CCCC1)Cn1c2ccccc2c2ccccc21 (stereo not given)	453 nM
CCc1ccc(Nc2cc(C)c3ccc(O)cc3n2)cc1	316 nM
CCN(CC)c1cc(C)c2cc(NC(=O)c3cccc(OC)c3)ccc2n1	2770 nM
COc1ccc(C(O)(CCC(C)C)C(CN2CCOCC2)c2ccc(Cl)cc2)cc1 (stereo not given)	3550 nM
CCCCCCn1c(=N)n(CC(O)COc2cccc(C)c2)c2ccccc21 (stereo not given)	1800 nM
Cc1ccc(NC(=O)Nc2cccc(Cl)c2)cc1F	1210 nM
CC(C)OCc1cc(CN2CCN(c3cccc(Cl)c3)CC2)c(O)c2ncccc12	573 nM
Oc1ccc(Br)cc1CN1CCN(Cc2cccc(F)c2)CC1	1290 nM
COc1ccc(-c2cc(=O)oc3c4c(ccc23)OCN(Cc2ccc(F)cc2)C4)cc1	851 nM

Compound	IC50
CSc1ccccc1C(=O)Nc1nc(-c2ccccn2)cs1	1800 nM
CC(O)(c1ccc(Cl)cc1)C(CN1CCCCC1)c1ccccc1 (stereo not given)	314 nM
CCCCc1ccc(NS(=O)(=O)c2cc3c4c(c2)CCN4C(=O)CC3)cc1	3680 nM
CCCOCc1cc(CN2CCN(c3cccc(Cl)c3)CC2)c(O)c2ncccc12	961 nM
CCOc1ccc2c(c1)CN(Cc1ccc(Cl)cc1)CO2	617 nM
CCOc1ccccc1CNC(=O)C1c2ccccc2C(=O)N(CC(C)C)C1c1cccs1 (stereo not given)	1220 nM
CC(C)(C)c1ccc2c(c1)CN(Cc1ccc(Cl)cc1)CO2	196 nM
CCCCC(O)(c1ccc(Cl)cc1)C(CN1CCOCC1)c1ccc(Cl)cc1 (stereo not given)	3570 nM
O=c1nc(C=Cc2ccc(Cl)cc2)oc2ccccc12	1190 nM
O=C(NCc1ccco1)C1CCN(S(=O)(=O)c2ccc(Br)cc2)CC1	901 nM
c1ccc(CNc2nc(Nc3ccccc3)nc3ccccc23)cc1	897 nM
CN(C)c1ccc(N2C(N)=NC(N)=NC2(C)C)cc1	158 nM
CCOc1ccc(Nc2ccnc3cc(Cl)ccc23)cc1	768 nM
CCOC(=O)c1ccc2nc(-c3ccccc3)cc(O)c2c1	720 nM
Clc1ccc2[nH]c3c(NCCCN4CCOCC4)ncnc3c2c1	617 nM
COc1ccc(Nc2nc(NCc3ccccc3)c3ccccc3n2)cc1	90.6 nM
COc1ccc(OC)c(C2C3=C(CC(C)(C)CC3=O)N(c3ccc(Cl)c(Cl)c3)C3=C2C(=O)CC(C)(C)C3)c1	2980 nM
Cc1cccc(N2C(=O)C3C(C2=O)C2(c4ccccc4)C(=O)C3(c3ccccc3)C(c3ccc4c(c3)OCO4)=C2c2ccc3c(c2)OCO3)c1 (stereo not given)	1700 nM
COc1ccc2c(c1OC)C(=O)N1c3ccccc3N=C(c3ccc(C)cc3)CC21 (stereo not given)	1690 nM
Oc1c(CN2CCN(c3ccccc3F)CC2)cc(Br)c2cccnc12	1340 nM
OC(CNCc1ccccc1)Cn1c2ccccc2c2ccccc21 (stereo not given)	1100 nM
COc1ccc(CCNC(=O)c2cc(S(=O)(=O)N3CC(C)CC(C)C3)ccc2Sc2ccc(F)cc2)cc1OC (stereo not given)	1330 nM
Cc1ccc(F)cc1NC(=O)c1cc(Cl)ccc1Nc1ccccc1	558 nM

Compound	IC50
CCOc1ccc(Nc2c3ccccc3nc3ccccc23)cc1	1670 nM
CCOc1ccc2nc(C)cc(Nc3ccc(Br)cc3)c2c1	791 nM
CCCCc1c(C)nc2c(OC)cccc2c1O	1410 nM
Clc1ccc2c(N3CCCC3)ccnc2c1	1290 nM
COc1cc2c3cc1Oc1c(OC)c(OC)cc4c1C(Cc1ccc(O)c(c1)Oc1ccc(cc1)CC3N(C)CC2)N(C)CC4 (stereo not given)	692 nM
COc1ccc(C2Sc3ccccc3N=C3C2=C(O)c2ccccc23)cc1 (stereo not given)	723 nM
CCCCCCC(O)(c1ccc(F)cc1)C(CN1CCOCC1)c1ccccc1 (stereo not given)	3420 nM
Cc1ccc(C)c(-c2csc(Nc3ccc(C)c(C)c3)n2)c1	1050 nM
CCOc1c(Br)cc(C2C(C(=O)OC)=CN(C)C=C2C(=O)OC)cc1OC	789 nM
CCOc1ccc(CCNC(=O)c2cccs2)cc1OCC	2720 nM
CCCN(CCC)CCCNC(=O)c1cc2c(-c3ccc(OC)c(OC)c3)nn(C)c2s1	1160 nM
Cc1cc(N2CCN(C3CCCC3)CC2)n2c(nc3ccccc32)c1C#N	916 nM
CCCCCn1c(=N)n(CC(O)COc2cccc(C)c2)c2ccccc21 (stereo not given)	2350 nM
Cc1ccc(Nc2nc(NCCO)c3ccccc3n2)cc1C	987 nM
CCCCOc1ccc(C(=O)Nc2cc(C)on2)cc1	783 nM
CC1CCCCN1CCCNC(=O)c1ccc2c(c1)sc1nc(-c3ccc(F)cc3)cn12 (stereo not given)	559 nM
COc1ccccc1N1C(=N)SC(=Cc2ccc(OCc3ccccc3F)cc2)C1=O	809 nM
CCc1ccc(Nc2cc(C)nc3nc(C)nn23)cc1	691 nM
COc1ccc(NC(=O)C2c3ccccc3C(=O)N(CC(C)C)C2c2cccs2)cc1 (stereo not given)	1260 nM
CCOC(=O)C1=CN(C)C=C(C(=O)OCC)C1c1cc(Br)c(OCC)c(OC)c1	458 nM
C=CCc1c(C)nc2ccccc2c1O	1480 nM
CN1CCN(c2nc(Nc3ccc(O)cc3)nc3ccccc23)CC1	1410 nM
CCCCN(CCCC)S(=O)(=O)c1ccc(NC(=O)c2ccco2)cc1	1160 nM
